This note sets out measurements from patent US20210260036A1, “METHODS OF TREATMENT FOR ALPHA-1 ANTITRYPSIN DEFICIENCY” (Vertex Pharmaceuticals Incorporated, priority 2020, published 2021).

Data set [1] has as its target T1, Z-AAT (Homo sapiens, UniProt P01009, E366K). The data set is described as follows: Z-AAT folding and secretion in transgenic mice expressing human Z-AAT. It counts as in vivo. The conditions noted are these: transgenic mice engineered to express human Z-AAT. On the set-up: expressed in transfected cells; host or cells: transgenic mice expressing human Z-AAT. The source says: (§1) 4-[5-(4-fluorophenyl)-6-tetrahydropyran-4-yl-1H-pyrrolo[2,3-f]indazol-7-yl]benzoic acid (Compound I), disclosed in PCT/US2020/032832, filed on May 14, 2020, is being developed as a treatment for AATD. […] Thus, Compound I has the potential to address both the loss-of-function and the gain-of-function aspects of the Z mutation. By restoring physiological levels of circulating AAT activity, Compound I may reduce the risk of lung disease. By preventing Z-polymer formation in the liver, Compound I may reduce the risk of developing progressive liver disease (fibrosis and cirrhosis).

The target of data set [2] is T1, Z-AAT. Put plainly: Z-AAT folding, polymerization and secretion in cell line models. It counts as cell-based. The conditions noted are these: multiple cell line models.
Text: as §1

Data set [3] relates to healthy subjects. Put plainly: Phase 1 randomized, double-blinded, placebo-controlled single and multiple-dose study. The data set is classed as in vivo, human. The conditions noted are these: single and multiple doses. The source says: A randomized, double-blinded, placebo-controlled single and multiple-dose Phase I study evaluating Compound I has been completed in healthy subjects.

T1 sequence (P01009 25-418 E366K): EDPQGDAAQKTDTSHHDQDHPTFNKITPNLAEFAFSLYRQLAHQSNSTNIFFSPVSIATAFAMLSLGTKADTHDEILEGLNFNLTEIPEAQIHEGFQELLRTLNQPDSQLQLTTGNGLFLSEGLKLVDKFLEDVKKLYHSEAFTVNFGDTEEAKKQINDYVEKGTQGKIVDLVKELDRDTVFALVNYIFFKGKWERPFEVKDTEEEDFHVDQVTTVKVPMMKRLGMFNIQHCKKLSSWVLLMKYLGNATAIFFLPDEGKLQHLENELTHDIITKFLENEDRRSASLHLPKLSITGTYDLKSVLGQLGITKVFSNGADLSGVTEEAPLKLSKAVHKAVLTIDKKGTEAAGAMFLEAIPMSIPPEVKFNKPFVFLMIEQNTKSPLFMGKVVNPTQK

Consider `O=C(O)c1ccc(-c2c(C3CCOCC3)n(-c3ccc(F)cc3)c3cc4cn[nH]c4cc23)cc1` [Compound I, 4-[5-(4-fluorophenyl)-6-tetrahydropyran-4-yl-1H-pyrrolo[2,3-f]indazol-7-yl]benzoic acid], for which, in data set [1], the “folding and secretion of functionally active AAT” value was “facilitates proper folding and secretion of functionally active AAT”. Also, in data set [2], the “folding of Z-AAT” value is “promotes the proper folding of Z-AAT”, the “intracellular Z-AAT protein polymerization” value is recorded as “preventing intracellular Z-AAT protein polymerization” and the “secretion of functionally active AAT” value is recorded as “increasing secretion of functionally active AAT”. Moreover, in data set [3], the safety and tolerability result is “safe and well-tolerated”; the serious adverse events result is recorded as “no serious adverse events”.
